≈ marks a conversion by molar mass, not a printed value.
What was measured:
Assay type in all cases: functional
Providencia stuartii [1] = assay: Antibacterial activity against VIM1 carbapenemase producing multidrug-resistant Providencia stuartii 67 clinical isolate by broth microtiter dilution method
Pseudomonas aeruginosa [2] = assay: Antibacterial activity against VIM2 carbapenemase producing multidrug-resistant Pseudomonas aeruginosa GR57 clinical isolate infected in Galleria mellonella larvae assessed as survival rate at 0.6 mg/kg measured at 96 hrs; conditions: GR57, 96 h
Pseudomonas aeruginosa [3] = assay: Antibacterial activity against VIM2 carbapenemase producing multidrug-resistant Pseudomonas aeruginosa GR57 clinical isolate by broth microtiter dilution method
Klebsiella oxytoca [4] = assay: Antibacterial activity against VIM4 carbapenemase producing multidrug-resistant Klebsiella oxytoca 126 clinical isolate by broth microtiter dilution method
Pseudomonas aeruginosa [5] = assay: Antibacterial activity against VIM2 carbapenemase producing multidrug-resistant Pseudomonas aeruginosa 13 clinical isolate by broth microtiter dilution method
Pseudomonas aeruginosa [6] = assay: Antibacterial activity against VIM2 carbapenemase producing multidrug-resistant Pseudomonas aeruginosa 8 clinical isolate by broth microtiter dilution method
Pseudomonas aeruginosa [7] = assay: Antibacterial activity against VIM2 carbapenemase producing multidrug-resistant Pseudomonas aeruginosa GR58 clinical isolate by broth microtiter dilution method
Klebsiella pneumoniae [8] = assay: Antibacterial activity against VIM4 carbapenemase producing multidrug-resistant Klebsiella pneumoniae 128 clinical isolate by broth microtiter dilution method
Klebsiella oxytoca [9] = assay: Antibacterial activity against VIM4 carbapenemase producing multidrug-resistant Klebsiella oxytoca 95 clinical isolate by broth microtiter dilution method
Klebsiella pneumoniae [10] = assay: Antibacterial activity against VIM1 carbapenemase producing multidrug-resistant Klebsiella pneumoniae 177 clinical isolate by broth microtiter dilution method
Pseudomonas aeruginosa [11] = assay: Antibacterial activity against VIM2 carbapenemase producing multidrug-resistant Pseudomonas aeruginosa GR64 clinical isolate by broth microtiter dilution method
Providencia stuartii [12] = assay: Antibacterial activity against VIM1 carbapenemase producing multidrug-resistant Providencia stuartii 70 clinical isolate by broth microtiter dilution method
Pseudomonas aeruginosa [13] = assay: Antibacterial activity against VIM2 carbapenemase producing multidrug-resistant Pseudomonas aeruginosa 50 clinical isolate by broth microtiter dilution method
Pseudomonas aeruginosa [14] = assay: Antibacterial activity against VIM2 carbapenemase producing multidrug-resistant Pseudomonas aeruginosa 47 clinical isolate by broth microtiter dilution method
Klebsiella pneumoniae [15] = assay: Antibacterial activity against VIM4 carbapenemase producing multidrug-resistant Klebsiella pneumoniae 120 clinical isolate infected in Galleria mellonella larvae assessed as survival rate at 0.6 mg/kg measured at 96 hrs; conditions: Klebsiella pneumoniae, 120, 96 h
Pseudomonas aeruginosa [16] = assay: Antibacterial activity against VIM2 carbapenemase producing multidrug-resistant Pseudomonas aeruginosa GR62 clinical isolate by broth microtiter dilution method
Klebsiella pneumoniae [17] = assay: Antibacterial activity against VIM1 carbapenemase producing multidrug-resistant Klebsiella pneumoniae GR54 clinical isolate by broth microtiter dilution method
Enterobacter cloacae = assay: Antibacterial activity against VIM4 carbapenemase producing multidrug-resistant Enterobacter cloacae 102 clinical isolate by broth microtiter dilution method
Pseudomonas aeruginosa [18] = assay: Antibacterial activity against VIM2 carbapenemase producing multidrug-resistant Pseudomonas aeruginosa 6 clinical isolate by broth microtiter dilution method
Klebsiella pneumoniae [19] = assay: Antibacterial activity against VIM4 carbapenemase producing multidrug-resistant Klebsiella pneumoniae 101 clinical isolate by broth microtiter dilution method
Pseudomonas aeruginosa [20] = assay: Antibacterial activity against VIM2 carbapenemase producing multidrug-resistant Pseudomonas aeruginosa 11 clinical isolate by broth microtiter dilution method
Pseudomonas aeruginosa [21] = assay: Antibacterial activity against VIM2 carbapenemase producing multidrug-resistant Pseudomonas aeruginosa 12 clinical isolate by broth microtiter dilution method
Escherichia coli = assay: Antibacterial activity against VIM4 carbapenemase producing multidrug-resistant Escherichia coli 98 clinical isolate infected in Galleria mellonella larvae assessed as survival rate at 0.6 mg/kg measured at 96 hrs; conditions: Escherichia coli, 98, 96 h
Pseudomonas aeruginosa [22] = assay: Antibacterial activity against VIM2 carbapenemase producing multidrug-resistant Pseudomonas aeruginosa 9 clinical isolate by broth microtiter dilution method

`C[C@@H](O)[C@H]1C(=O)N2C(C(=O)O)=C(S[C@@H]3CN[C@H](C(=O)N(C)C)C3)[C@H](C)[C@H]12` [MEROPENEM] showed an MIC (Providencia stuartii [1]) of 8 µg/mL (≈ 20.9 µM), a survival at 0.6 mg/kg (Pseudomonas aeruginosa [2]) of 23% and an MIC (Pseudomonas aeruginosa [3]) of 32 µg/mL (≈ 83.4 µM). For the same molecule, the MIC (Klebsiella oxytoca [4]) was 32 µg/mL (≈ 83.4 µM), the MIC (Pseudomonas aeruginosa [5]) was 32 µg/mL (≈ 83.4 µM) and the MIC (Pseudomonas aeruginosa [6]) was 128 µg/mL (≈ 334 µM). It also gave an MIC (Pseudomonas aeruginosa [7]) of 32 µg/mL (≈ 83.4 µM), an MIC (Klebsiella pneumoniae [8]) of 4 µg/mL (≈ 10.4 µM) and an MIC (Klebsiella oxytoca [9]) of 32 µg/mL (≈ 83.4 µM). It also gave an MIC (Klebsiella pneumoniae [10]) of 1 µg/mL (≈ 2.61 µM), an MIC (Pseudomonas aeruginosa [11]) of 32 µg/mL (≈ 83.4 µM) and an MIC (Providencia stuartii [12]) of 8 µg/mL (≈ 20.9 µM). It also gave an MIC (Pseudomonas aeruginosa [13]) of 32 µg/mL (≈ 83.4 µM), an MIC (Pseudomonas aeruginosa [14]) of 32 µg/mL (≈ 83.4 µM) and a survival at 0.6 mg/kg (Klebsiella pneumoniae [15]) of 69%. The MIC (Pseudomonas aeruginosa [16]) was 32 µg/mL (≈ 83.4 µM), the MIC (Klebsiella pneumoniae [17]) was 128 µg/mL (≈ 334 µM) and the MIC (Enterobacter cloacae) was 32 µg/mL (≈ 83.4 µM). The MIC (Pseudomonas aeruginosa [18]) was 128 µg/mL (≈ 334 µM), the MIC (Klebsiella pneumoniae [19]) was 32 µg/mL (≈ 83.4 µM) and the MIC (Pseudomonas aeruginosa [20]) was 32 µg/mL (≈ 83.4 µM). It also gave an MIC (Pseudomonas aeruginosa [21]) of 128 µg/mL (≈ 334 µM), a survival at 0.6 mg/kg (Escherichia coli) of 44% and an MIC (Pseudomonas aeruginosa [22]) of 128 µg/mL (≈ 334 µM).

Reference: ChEMBL document CHEMBL3792311, “In vitro and in vivo activity of ML302F: a thioenolate inhibitor of VIM-subfamily metallo -lactamases” (Medchemcomm, 2016)
